Measured values: ChEMBL document CHEMBL5576130, “Non-Covalent Inhibitors of SARS-CoV-2 Papain-Like Protease (PLpro): In Vitro and In Vivo Antiviral Activity” (J Med Chem, 2024)
The source made the active and inactive calls. The calls are words filed in the database; no cut-off is given here.

How the values were obtained:
SARS-CoV-2 [1] = assay: Antiviral activity against SARS-CoV-2 Gamma (P.1) variant infected in human A549 cells harbouring ACE2 pretreated with compound for 1 hr followed by viral infection for 1 hrs and measured after 48 hrs by RT-qPCR analysis; type: functional, organism-based; conditions: Severe acute respiratory syndrome coronavirus 2, time 50.0 hrs
SARS-CoV-2 [2] = assay: Antiviral activity against SARS-CoV-2 Delta (B.1.617.2) variant infected in human A549 cells harbouring ACE2 pretreated with compound for 1 hr followed by viral infection for 1 hrs and measured after 48 hrs by RT-qPCR analysis; type: functional, organism-based; conditions: Severe acute respiratory syndrome coronavirus 2, time 50.0 hrs

Q: How did the Activity (SARS-CoV-2 [1]) turn out when Cc1ccc(NC2CNC2)cc1C(=O)N[C@H](C)c1cccc(-c2ccc(CNC3CCCC3)s2)c1 was run?
A: Its Activity is “Active”.

Q: What about the Activity (SARS-CoV-2 [2]) of the same compound?
A: The Activity was “Active”.
